Earlier results as cited in patent US20110028397A1, “Use of Urokinase Type Plasminogen Activator Inhibitors for the Treatment of Corneal Disorders” (priority 2007, published 2011).

What was measured:
[1] = eye drop prepared freshly daily, stored in refrigerator between uses
[2] = biological target: thrombin (Homo sapiens, UniProt P00734)
[3] = in vivo, sc

inhibitory activity on storage [1]	Ki [2]	biological availability [3]	Molecule	anticoagulant activity (in vitro and in vivo)	antithrombotic effect in in vivo studies (in vivo)
retains its inhibitory activity	75 nM		N=C(N)NCCC[C@@H](C=O)NC(=O)[C@@H]1CCCN1C(=O)[C@H](N)Cc1ccccc1 [Ald-1, D-Phe-Pro-Arg-aldehyde]	significant anticoagulant activity	effective antithrombotic drug
		87%	iBuOCO-D-Ser-Ala-Arg-aldehyde		
